Species: Rattus norvegicus
Experiment: DrugMatrix - Regimen: Daily Repeat
Type: toxicity, organism-based, Sprague-Dawley
Parameters: regimen Daily Repeat, gender Male, age 6-8 weeks
Conditions: in vivo, po, route oral GAVAGE, vehicle .5 % CMC; for ABSOLUTE BASOPHIL / ABSOLUTE EOSINOPHIL / ABSOLUTE LYMPHOCYTE / ABSOLUTE MONOCYTE / ABSOLUTE SEGMENTED NEUTROPHIL / BASOPHIL / EOSINOPHIL / ERYTHROCYTE COUNT / HEMATOCRIT / HEMOGLOBIN / LEUKOCYTE COUNT / LYMPHOCYTE / MEAN CORPUSCULAR HEMOGLOBIN / MEAN CORPUSCULAR HEMOGLOBIN CONCENTRATION / MEAN CORPUSCULAR VOLUME / MONOCYTE / NEUTROPHIL / NUCLEATED RED BLOOD CELLS / PLATELET COUNT: tissue Blood; for ALANINE AMINOTRANSFERASE / ALBUMIN / ALKALINE PHOSPHATASE / ASPARTATE AMINOTRANSFERASE / BLOOD UREA NITROGEN / CARBON DIOXIDE / CHLORIDE / CHOLESTEROL / CREATINE PHOSPHOKINASE / CREATININE / GLUCOSE / LACTATE DEHYDROGENASE / LIPASE / PHOSPHORUS / POTASSIUM / SODIUM / TOTAL BILIRUBIN / TOTAL PROTEIN / URIC ACID: tissue Plasma
[1] = 0 mg/kg, 72 h, dose level Control, time 3 day
[2] = 0 mg/kg, 120 h, dose level Control, time 5 day
[3] = 19 mg/kg, 72 h, dose level High, time 3 day

NCC(CC(=O)O)c1ccc(Cl)cc1 (centres undefined) [BACLOFEN]
ABSOLUTE BASOPHIL [1]: 0 CELLS/uL | ABSOLUTE EOSINOPHIL [1]: 171.33 CELLS/uL | ABSOLUTE LYMPHOCYTE [1]: 13776.5 CELLS/uL | ABSOLUTE MONOCYTE [1]: 180.83 CELLS/uL | ABSOLUTE SEGMENTED NEUTROPHIL [1]: 1121.33 CELLS/uL | BASOPHIL [1]: 0% | EOSINOPHIL [1]: 1% | ERYTHROCYTE COUNT [1]: 5.56 x10E6/uL | HEMATOCRIT [1]: 34.75% | HEMOGLOBIN [1]: 13.68 G/DL | LEUKOCYTE COUNT [1]: 15.25 x10E3/uL | LYMPHOCYTE [1]: 90.17% | MEAN CORPUSCULAR HEMOGLOBIN [1]: 24.6 pg | MEAN CORPUSCULAR HEMOGLOBIN CONCENTRATION [1]: 39.4 G/DL | MEAN CORPUSCULAR VOLUME [1]: 62.48 fL | MONOCYTE [1]: 1.17% | NEUTROPHIL [1]: 7.67% | NUCLEATED RED BLOOD CELLS [1]: 0 /100WBC | PLATELET COUNT [1]: 1342 x10E3/uL | ALANINE AMINOTRANSFERASE [1]: 49.67 u/L | ALBUMIN [1]: 4.15 G/DL | ALKALINE PHOSPHATASE [1]: 346.83 u/L | ASPARTATE AMINOTRANSFERASE [1]: 108.17 u/L | BLOOD UREA NITROGEN [1]: 17.33 mg/dL | CARBON DIOXIDE [1]: 25 mmol/L | CHLORIDE [1]: 100.83 MEQ/L | CHOLESTEROL [1]: 66.83 mg/dL | CREATINE PHOSPHOKINASE [1]: 788 u/L | CREATININE [1]: 0.18 mg/dL | GLUCOSE [1]: 151.67 mg/dL | LACTATE DEHYDROGENASE [1]: 982.5 u/L | LIPASE [1]: 10.33 u/L | PHOSPHORUS [1]: 11.23 mg/dL | POTASSIUM [1]: 6.37 MEQ/L | SODIUM [1]: 141.02 MEQ/L | TOTAL BILIRUBIN [1]: 0.18 mg/dL | TOTAL PROTEIN [1]: 5.9 G/DL | URIC ACID [1]: 1.8 mg/dL | ABSOLUTE BASOPHIL [2]: 0 CELLS/uL | ABSOLUTE EOSINOPHIL [2]: 69 CELLS/uL | ABSOLUTE LYMPHOCYTE [2]: 13632.83 CELLS/uL | ABSOLUTE MONOCYTE [2]: 139.83 CELLS/uL | ABSOLUTE SEGMENTED NEUTROPHIL [2]: 1225 CELLS/uL | BASOPHIL [2]: 0% | EOSINOPHIL [2]: 0.33% | ERYTHROCYTE COUNT [2]: 5.52 x10E6/uL | HEMATOCRIT [2]: 33.98% | HEMOGLOBIN [2]: 13.22 G/DL | LEUKOCYTE COUNT [2]: 15.07 x10E3/uL | LYMPHOCYTE [2]: 90.83% | MEAN CORPUSCULAR HEMOGLOBIN [2]: 23.95 pg | MEAN CORPUSCULAR HEMOGLOBIN CONCENTRATION [2]: 38.9 G/DL | MEAN CORPUSCULAR VOLUME [2]: 61.53 fL | MONOCYTE [2]: 0.83% | NEUTROPHIL [2]: 8% | NUCLEATED RED BLOOD CELLS [2]: 0 /100WBC | PLATELET COUNT [2]: 1196 x10E3/uL | ALANINE AMINOTRANSFERASE [2]: 49.17 u/L | ALBUMIN [2]: 4.2 G/DL | ALKALINE PHOSPHATASE [2]: 352.33 u/L | ASPARTATE AMINOTRANSFERASE [2]: 89.67 u/L | BLOOD UREA NITROGEN [2]: 18 mg/dL | CARBON DIOXIDE [2]: 27.67 mmol/L | CHLORIDE [2]: 101 MEQ/L | CHOLESTEROL [2]: 72.83 mg/dL | CREATINE PHOSPHOKINASE [2]: 417.5 u/L | CREATININE [2]: 0.18 mg/dL | GLUCOSE [2]: 150.5 mg/dL | LACTATE DEHYDROGENASE [2]: 517.33 u/L | LIPASE [2]: 9 u/L | PHOSPHORUS [2]: 11.87 mg/dL | POTASSIUM [2]: 6.57 MEQ/L | SODIUM [2]: 143.62 MEQ/L | TOTAL BILIRUBIN [2]: 0.2 mg/dL | TOTAL PROTEIN [2]: 6.08 G/DL | URIC ACID [2]: 1.45 mg/dL | ABSOLUTE BASOPHIL [3]: 0 CELLS/uL | ABSOLUTE EOSINOPHIL [3]: 0 CELLS/uL | ABSOLUTE LYMPHOCYTE [3]: 12161.33 CELLS/uL | ABSOLUTE MONOCYTE [3]: 182.33 CELLS/uL | ABSOLUTE SEGMENTED NEUTROPHIL [3]: 1123 CELLS/uL | BASOPHIL [3]: 0% | EOSINOPHIL [3]: 0% | ERYTHROCYTE COUNT [3]: 5.27 x10E6/uL | HEMATOCRIT [3]: 34.17% | HEMOGLOBIN [3]: 13.33 G/DL | LEUKOCYTE COUNT [3]: 13.47 x10E3/uL | LYMPHOCYTE [3]: 90.33% | MEAN CORPUSCULAR HEMOGLOBIN [3]: 25.37 pg | MEAN CORPUSCULAR HEMOGLOBIN CONCENTRATION [3]: 39.03 G/DL | MEAN CORPUSCULAR VOLUME [3]: 64.97 fL | MONOCYTE [3]: 1.33% | NEUTROPHIL [3]: 8.33% | NUCLEATED RED BLOOD CELLS [3]: 0 /100WBC | PLATELET COUNT [3]: 1177 x10E3/uL | ALANINE AMINOTRANSFERASE [3]: 54.33 u/L | ALBUMIN [3]: 4.03 G/DL | ALKALINE PHOSPHATASE [3]: 373.67 u/L | ASPARTATE AMINOTRANSFERASE [3]: 85.33 u/L | BLOOD UREA NITROGEN [3]: 15.33 mg/dL | CARBON DIOXIDE [3]: 26.33 mmol/L | CHLORIDE [3]: 101.67 MEQ/L | CHOLESTEROL [3]: 64 mg/dL | CREATINE PHOSPHOKINASE [3]: 394.67 u/L | CREATININE [3]: 0.16 mg/dL | GLUCOSE [3]: 125 mg/dL | LACTATE DEHYDROGENASE [3]: 438.33 u/L | LIPASE [3]: 10 u/L | PHOSPHORUS [3]: 11.93 mg/dL | POTASSIUM [3]: 7.01 MEQ/L | SODIUM [3]: 142.53 MEQ/L | TOTAL BILIRUBIN [3]: 0.2 mg/dL | TOTAL PROTEIN [3]: 5.53 G/DL | URIC ACID [3]: 1.57 mg/dL
